Marks after values point to notes of the source that are not given here.
Columns and labels:
Assay type in all cases: in vivo
[1] = test system: winter wheat, Triticum aestivum cv. Hereward; test: Saline stress-induced senescence of wheat plants; details: 100 nM, 75 mM NaCl, assessed 25 and 30 days after planting
Procedure: To investigate the effect of compound 6 to saline-induced senescence seeds of winter wheat, Triticum aestivum cv. Hereward, were washed under running water for 24 hours and then sown to 1 L containers on perlite soaked with water or 100 nM water solution of […]. Containers were placed in the growth chamber at 25° C. with a 16/8 h light period at 50 μmol·m^−2·s^−1. Seven days after planting the plants were treated by 75 mM NaCl solution. Plants were allowed to grow and 25 and 30 days after planting the result was assessed.

[2] = test system: winter wheat, Triticum aestivum cv. Hereward; test: Drought stress tolerance of wheat plants; details: 100 nM aqueous solution, drought stress last 20 days, 30 days after planting; untreated 37%
Procedure: To investigate the effect of 1-(2-methoxy-ethyl)-3-[1,2,3]thiadiazol-5-yl-urea and 1-furfuryl-[1,2,3]thiadiazol-5-yl-urea to drought-induced senescence, seeds of winter wheat, Triticum aestivum cv. Hereward, were washed under running water for 24 hours and then sown into trays with perlite (30×40 cm) and soaked by water, or 100 nM aqueous solution of 1-(2-methoxy-ethyl)-3-[1,2,3]thiadiazol-5-yl-urea or 1-furfuryl-[1,2,3]thiadiazol-5-yl-urea. The trays were placed in a growth chamber at 25° C. with 8/16 hours light/dark cycle at intensity […]. Plants were under drought stress last 20 days. 30 Days after planting it was counted how many plants survived on individual trays.

[3] = test system: spring barley (Hordeum vulgare), malting variety Bojos; test: Field experiment, spring barley, foliar spraying; details: 5 μM foliar; for Grain yield: control 7.653; for Number of grains/spike: control 23.49; for Thousand grain weight: control 45.85; for Number of tillers: control 4.61; for Number of spikes/m^2: control 700.4
Description: The initial field experiments were done with spring barley (Hordeum vulgare), malting variety Bojos in field plots of University of Palacky in Olomouc. All field experiments were done according to criteria for Good Experimental Practices. Six repetitions (each 10 m^2) were used per one variant, sowing rate was 3.5 millions of germinated grains per hectare. Field trials were not treated by growth regulators and fungicides, except of applied compounds. Compounds 1-(2-methoxy-ethyl)-3-[1,2,3]thiadiazol-5-yl-urea and 1-(2-chloro-ethyl)-3-[1,2,3]thiadiazol-5-yl-urea were applied once in indicated time (Tillering, BBCH 23-25 or Inflorescence emergence, BBCH 51-53) by foliar spraying in concentration 5 μM. For each variant at least 50 plants were used to obtain morphology parameters. Statistical evaluation was executed in stat. program PAST v. 2.17c.

winter oilseed rape = test: Field experiment, winter oilseed rape, foliar spray; details: 25 μM foliar spray, BBCH 50
Procedure: (§1) All field experiments were done according to criteria for Good Experimental Practices. Six repetitions (10 m^2 each) were used per one variant. Field trials were not treated by growth regulators and fungicides, except of applied compound 1-furfuryl-[1,2,3]thiadiazol-5-yl-urea. N-furfuryl-N′-1,2,3-thiadiazol-5-yl-urea was applied once at the precise time (extension growth BBCH 50), by foliar spray at a concentration of 25 μM. For each variant at least 50 plants were used to obtain morphology parameters. Statistical evaluation was executed in stat. program PAST v. 2.17c.

spring barley = test: Field experiments, spring barley, years 2014 and 2015, foliar spray
Procedure: as §1
All field experiments were done according to criteria for Good Experimental Practices as described in example 17. N-furfuryl-N′-1,2,3-thiadiazol-5-yl-urea was applied once at the precise time (extension growth BBCH 50), by foliar spray at a concentration of 25 μM in a year 2014 and at a concentration of 5 μM in a year 2015. For each variant at least 50 plants were used to obtain morphology parameters. Statistical evaluation was executed in stat. program PAST v. 2.17c.

[4] = Inflorescence emergence, BBCH 51-53
[5] = Tillering, BBCH 23-25, listed as compound 6

SMILES | plants survived [2] | Grain yield, % of control [3, 4] | Number of grains/spike, % of control [3, 4] | Thousand grain weight, % of control [3, 4] | Grain yield [3, 4] | Number of grains/spike [3, 4] | Thousand grain weight [3, 4] | Grain yield, % of control ([3]; Tillering, BBCH 23-25) | Number of grains/spike, % of control ([3]; Tillering, BBCH 23-25) | Number of spikes/m^2, % of control ([3]; Tillering, BBCH 23-25) | Number of tillers, % of control ([3]; Tillering, BBCH 23-25) | Thousand grain weight, % of control ([3]; Tillering, BBCH 23-25) | Number of tillers ([3]; Tillering, BBCH 23-25) | Grain yield ([3]; Tillering, BBCH 23-25) | Number of grains/spike ([3]; Tillering, BBCH 23-25) | Thousand grain weight ([3]; Tillering, BBCH 23-25) | Number of spikes/m^2 ([3]; Tillering, BBCH 23-25) | other results
COCCNC(=O)Nc1cnns1 [Compound 6, 1-(2-methoxy-ethyl)-3-[1,2,3]thiadiazol-5-yl-urea] | 82% | 103.6% | 99.5% | 102.0% | 7.927 t/ha | 23.37 | 46.77 g | 111.3% | 103.3% | 110.3* % | 115.7* % | 102.9% | 5.3* | 8.517 t/ha | 24.27 | 47.18 g | 772.4* | effect on saline stress-induced senescence (in words) [1]: significantly delays stress-induced senescence; Number of spikes/m^2, % of control [3, 5]: 110.3%; Number of tillers, % of control [3, 5]: 115.7%
O=C(NCCCl)Nc1cnns1 [Compound 65, 1-(2-Chloro-ethyl)-3-[1,2,3]thiadiazol-5-yl-urea] |  | 109.7% | 102.9% | 100.2% | 8.398 t/ha | 24.17 | 45.96 g | 109.3% | 103.9% | 109.2* % | 109.2% | 99.0% | 5.0 | 8.362 t/ha | 24.42 | 45.35 g | 764.8* | Number of spikes/m^2, % of control ([3]; Tillering, BBCH 23-25, listed as compound 65): 109.2%
O=C(NCc1ccco1)Nc1cnns1 [Compound 84, N-furfuryl-N′-1,2,3-thiadiazol-5-yl-urea] | 71% |  |  |  |  |  |  |  |  |  |  |  |  |  |  |  |  | WTK (weight of a thousand kernels) (winter oilseed rape; control 4.35): 4.8 g; Seed yield (winter oilseed rape; control 4.994): 6.038 t/ha; WTK, % of control (winter oilseed rape; listed as Comp. 84): 110.3%; WTK, % of control (spring barley; Year 2014, 25 μM foliar spray): 100.06%; Seed yield (spring barley; Year 2014, 25 μM foliar spray, control 7.65): 8.02 t/ha; grains per ear (spring barley; Year 2014, 25 μM foliar spray, control 23.5): 24.6; WTK (spring barley; Year 2014, 25 μM foliar spray, control 45.85): 45.88 g; Seed yield (spring barley; Year 2015, 5 μM foliar spray, control 7.01): 7.49 t/ha
